The results in this text go back to US7390910B2, “Compounds for treating tumors” (priority 2003, dated 2008).

The subject of assay [1] is KBV1. Description: cells. Particulars: for IC50: 3 days, SRB; for inhibition at 3 µM: KB-V1, 3000 nM. Format: cell-based. Here is the method:
(§1) Cell Survival Assay: Standard Pharmacological Test Procedure. […] Compounds are incubated with cells for 3 days.

The test system of assay [2] is KB85. Description: cells. Format: cell-based. Particulars: for IC50: 3 days, SRB. Here is the method: as §1
In assay [3] the test system is KB cells. Description: cells. The format is cell-based. Particulars: for IC50: 3 days, SRB. The protocol:
as §1

Assay [4] concerns bovine microtubule-associated protein (MAP)-rich tubulin. Format: biochemical. Put shortly:
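This in vitro polymerization assay used bovine tubulin rich in microtubule-associated proteins, prepared at 1.5 mg/ml in GPEM (PEM buffer containing 1 mM GTP) and cleared by a 12,000×g spin. Tubulin solution (100 μl/well) was dispensed onto duplicate 10 μl test samples. Control wells held 0.3% DMSO. A SpectraMax Plus reader recorded turbidity at 340 nm every minute over 60 min at 24° C.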

The structures appear in SMILES notation. Marks after values point to notes of the source that are not given here. Where a SMILES comes first, the peptide text is derived from it. [ ]: non-standard residue; d: D form. The star is where a group is joined. NMePhe(β,β-Me2) = CN[C@H](C(=O)O)C(C)(C)c1ccccc1; Tle = CC(C)(C)[C@H](N)C(=O)O; NMeV = CN[C@H](C(=O)O)C(C)C; NHBn = c1ccc(CN*)cc1

As for `CN[C@H](C(=O)N[C@H](C(=O)N(C)[C@H](/C=C(\C)[C@H](O)c1ccccc1)C(C)C)C(C)(C)C)C(C)(C)c1ccccc1` [Example 76, N,β,β-trimethyl-L-phenylalanyl-N-1-[(1S,2E,4S)-4-hydroxy-1-isopropyl-3-methyl-4-phenylbut-2-enyl}-N-1,3-dimethyl-L-valinamide], the 50% inhibitory concentration (IC50) in assay [1] is 190 nM; in assay [2], 22 nM; in assay [3], 16 nM. Also, in assay [4], the “Tubulin Polym. % inhibition at 0.5 uM” value was 63*** %.

In assay [1] (Homo sapiens), `CN[C@H](C(=O)N[C@H](C(=O)N(C)[C@H](/C=C(\C)C(=O)N1CCC[C@H]1C(=O)O)C(C)C)C(C)(C)C)C(C)(C)c1ccc(C)c(C)c1` [Example 18, N,β,β,3,4-Pentamethyl-L-phenylalanyl-N^1-{(1S,2E)-4-[(2S)-2-carboxypyrrolidin-1-yl]-1-isopropyl-3-methyl-4-oxobut-2-enyl}-N^1,3-dimethyl-L-valinamide] gave an inhibition at 3 µM of 6%. Further, the IC50 was 519 nM in assay [2] (72 h) and 74 nM in assay [3] (Homo sapiens, KB, 72 h). Moreover, the “Tubulin Polym. % inhibition at 0.3 uM” value in assay [4] is given as 76%.

For the molecule `CN[C@H](C(=O)N[C@H](C(=O)N(C)[C@H](/C=C(\C)C(=O)N1CCCC[C@H]1C(=O)O)C(C)C)C(C)(C)C)C(C)(C)c1ccccc1` [Example 50, N,β,β-trimethyl-L-phenylalanyl-N^1-{(1S,2E)-4-[(2S)-2-carboxypiperidin-1-yl]-1-isopropyl-3-methyl-4-oxobut-2-enyl}-N^1,3-dimethyl-L-valinamide], the inhibition at 3 µM in assay [1] (Homo sapiens) is 9%. Besides, the IC50 in assay [2] (72 h) is 270 nM; in assay [3] (Homo sapiens, KB, 72 h) it was 64 nM. Moreover, the “Tubulin Polym. % inhibition at 0.3 uM” value in assay [4] is given as 84(2) %.

Take `CN[C@H](C(=O)N[C@H](C(=O)N(C)[C@H](/C=C/P(=O)(O)O)C(C)C)C(C)(C)C)C(C)(C)c1ccccc1` [Example 70, N,β,β-trimethyl-L-phenylalanyl-N^1-[(1S,2E)-1-isopropyl-3-phosphonoprop-2-enyl]N^1,3-dimethyl-L-valinamide]: the inhibition at 3 µM turned out to be 3% in assay [1] (Homo sapiens); 0% in assay [2] (3000 nM); 0% in assay [3] (Homo sapiens, 72 h, 3000 nM). Moreover, in assay [4], the “Tubulin Polym. % inhibition at 0.3 uM” value was 69%.

With `CN[C@H](C(=O)N[C@H](C(=O)N(C)[C@H](/C=C(\C)C(=O)N1C[C@H](O)C[C@H]1C(=O)OC)C(C)C)C(C)(C)C)C(C)(C)c1ccccc1` [Example 40, N,β,β-trimethyl-L-phenylalanyl-N^1-{(1S,2E)-4-[(2S,4R)-2-(methoxycarbonyl)-4-hydroxypyrrolidin-1-yl]-1-isopropyl-3-methyl-4-oxobut-2-enyl}-N^1,3-dimethyl-L-valinamide], the inhibition at 3 µM in assay [1] (Homo sapiens) came out at 4%. For the same molecule, the IC50 in assay [2] (72 h) worked out at 116 nM; in assay [3] (Homo sapiens, KB, 72 h) it was 3.5 nM. Besides, the “Tubulin Polym. % inhibition at 0.5 uM” value in assay [4] is reported as 93*** %.

For `CN[C@H](C(=O)N[C@H](C(=O)N(C)[C@H](C(=O)N1CCC[C@H]1C(=O)N1CCC[C@H]1C(=O)NCc1ccccc1)C(C)C)C(C)(C)C)C(C)(C)c1ccccc1` [Example 34, N,β,β-trimethyl-L-phenylalanyl-3-methyl-L-valyl-N-methyl-L-valyl-L-prolyl-N-benzyl-L-prolinamide] (H-[NMePhe(β,β-Me2)][Tle][NMeV]PP-NHBn), the inhibition at 3 µM in assay [1] (Homo sapiens) stood at 5%. In addition, the IC50 amounted to 1950 nM in assay [1] (Homo sapiens, KB-V1, 72 h); 4.2 nM in assay [2] (72 h); 0.25 nM in assay [3] (Homo sapiens, KB, 72 h). The “Tubulin Polym. % inhibition at 0.3 uM” value in assay [4] worked out at 64%.

In the case of `CN[C@H](C(=O)N[C@H](C(=O)N(C)[C@H](/C=C(\C)C(=O)N1CCC[C@H]1C(=O)OC)C(C)C)C(C)(C)C)C(C)(C)C1CCCCC1` [Example 45, 3-cyclohexyl-N-methyl-L-valyl-N^1-{(1S,2E)-4-[(2S)-2-(methoxycarbonyl)pyrrolidin-1-yl]-1-isopropyl-3-methyl-4-oxobut-2-enyl}-N^1,3-dimethyl-L-valinamide], the IC50 came to 493 nM in assay [1] (Homo sapiens, KB-V1, 72 h); 16 nM in assay [2] (72 h); 3.7 nM in assay [3] (Homo sapiens, KB, 72 h). The “Tubulin Polym. % inhibition at 0.3 uM” value in assay [4] is reported as 62(2) %.

On to `CN[C@H](C(=O)N[C@H](C(=O)N(C)[C@H](/C=C(\C)C(=O)N1CCN(Cc2ccccc2)CC1)C(C)C)C(C)(C)C)C(C)(C)c1ccc(C)c(C)c1` [Example 12, N,β,β,3,4-Pentamethyl-L-phenylalanyl-N^1-[(1S,2E)-4-(4-benzylpiperazin-1-yl)-1-isopropyl-3-methyl-4-oxobut-2-enyl]-N^1,3-dimethyl-L-valinamide], for which the half-maximal inhibitory concentration (IC50) was found to be 1330 nM in assay [1] (Homo sapiens, KB-V1, 72 h); 65 nM in assay [2] (72 h); 48 nM in assay [3] (Homo sapiens, KB, 72 h). Besides, the “Tubulin Polym. % inhibition at 0.3 uM” value in assay [4] stood at 51%.

Consider `CN[C@H](C(=O)N[C@H](C(=O)N(C)[C@H](/C=C(\C)C(=O)N1CCOCC1)C(C)C)C(C)(C)C)C(C)(C)c1cccc(C)c1` [Example 1, N,β,β,3-Tetramethyl-L-phenylalanyl-N^1-[(1S,2E)-1-isopropyl-3-methyl-4-morpholin-4-yl-4-oxobut-2-enyl]-N^1,3-dimethyl-L-valinamide], for which the IC50 in assay [1] (Homo sapiens, KB-V1, 72 h) is 1510 nM; in assay [2] (72 h), 56 nM; in assay [3] (Homo sapiens, KB, 72 h), 19.5 nM. Moreover, in assay [4], the “Tubulin Polym. % inhibition at 0.3 uM” value came out at 79%.

`CN[C@H](C(=O)N[C@H](C(=O)N(C)[C@H](/C=C(\C)C(=O)N1CCC[C@@H]1C(=O)O)C(C)C)C(C)(C)C)C(C)(C)c1ccccc1` [Example 43, N,β,β-trimethyl-L-phenylalanyl-N^1-{(1S,2E)-4-[(2R)-2-carboxypyrrolidin-1-yl]-1-isopropyl-3-methyl-4-oxobut-2-enyl}-N^1,3-dimethyl-L-valinamide] showed an inhibition at 3 µM in assay [1] (Homo sapiens) of 0%. The half-maximal inhibitory concentration (IC50) in assay [2] (72 h) turned out to be 1580 nM; in assay [3] (Homo sapiens, KB, 72 h) it was 515 nM. In assay [4], the “Tubulin Polym. % inhibition at 0.3 uM” value was determined as 91%.

Take `CN[C@H](C(=O)N[C@H](C(=O)N(C)[C@H](/C=C(\C)C(=O)N1CCC[C@H]1C(=O)OC)C(C)C)C(C)(C)C)C(C)(C)c1cccc(C)c1` [Example 21, N,β,β,3-Tetramethyl-L-phenylalanyl-N^1-{(1S,2E)-4-[(2S)-2-(methoxycarbonyl)pyrrolidin-1-yl]-1-isopropyl-3-methyl-4-oxobut-2-enyl}-N^1,3-dimethyl-L-valinamide]: the IC50 in assay [1] (Homo sapiens, KB-V1, 72 h) is 275 nM; in assay [2] (72 h), 6.2 nM; in assay [3] (Homo sapiens, KB, 72 h) it was 1.6 nM. Moreover, the “Tubulin Polym. % inhibition at 0.3 uM” value in assay [4] was found to be 89%.

As for `CN[C@H](C(=O)N[C@H](C(=O)N(C)[C@H](/C=C(\C)C(O)c1ccccc1)C(C)C)C(C)(C)C)C(C)(C)c1ccccc1` (stereo partly drawn) [Example 74, N,β,β-trimethyl-L-phenylalanyl-N-1-[(1S,2E)-4-hydroxy-1-isopropyl-3-methyl-4-phenylbut-2-enyl}-N-1,3-dimethyl-L-valinamide], the IC50 in assay [1] turned out to be 466 nM; in assay [2], 54 nM; in assay [3], 19 nM. Further, the “Tubulin Polym. % inhibition at 0.3 uM” value in assay [4] was 73%.

In the case of `CN[C@H](C(=O)N[C@H](C(=O)N(C)[C@H](/C=C(\C)C(=O)c1nccs1)C(C)C)C(C)(C)C)C(C)(C)c1ccccc1` [Example 73, N,β,β-trimethyl-L-phenylalanyl-N^1-[(1S,2E)-1-isopropyl-3-methyl-4-oxo-4-(1,3-thiazol-2-yl)but-2-enyl]-N^1,3-dimethyl-L-valinamide], the concentration for half-maximal inhibition (IC50) in assay [1] (Homo sapiens, KB-V1, 72 h) came out at 1790 nM; in assay [2] (72 h), 565 nM; in assay [3] (Homo sapiens, KB, 72 h), 582 nM. Also, in assay [4], the “Tubulin Polym. % inhibition at 0.3 uM” value is 33%.
